In the supplement of paper PMC11061612:

What was measured:
Experiment in all cases: Bliss excess, mean over the matrix (fraction); higher = more synergy
[1] = system: COR-L279 (Small Cell Lung Carcinoma)
Method in brief: (§1)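 Cell lines in DMEM/F12 or RPMI with 10% FBS were plated in 1536-well plates, held 24 hours at 37°C, 5% CO2, then given two-drug dose matrices for 72 hours (DMSO typically 0.2%). Viability was read by CellTiter-Glo 2.0 luminescence and scaled as inhibition from 0 (vehicle wells) to 1 (blank wells). Combination Emax is the second-highest inhibition in the matrix; Bliss excess is observed combination effect minus expected EA + EB − EA·EB, EA and EB being single-agent effects.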

[2] = system: CW-2 (Colorectal Carcinoma)
Method in brief: as §1

[3] = system: KP-3 (Pancreatic Carcinoma)
Method in brief: as §1

[4] = system: KU812 (Chronic Myelogenous Leukemia)
Method in brief: as §1

[5] = system: KYSE-270 (Esophageal Squamous Cell Carcinoma)
Method in brief: as §1

M059J (Glioblastoma) = system: M059J (Glioblastoma)
Method in brief: as §1

[6] = system: MN-60 (B-Lymphoblastic Leukemia)
Method in brief: as §1

[7] = system: MOG-G-CCM (Low Grade Glioma)
Method in brief: as §1

[8] = system: NCCIT (Other Solid Carcinomas)
Method in brief: as §1

NCI-H2731 (Mesothelioma) = system: NCI-H2731 (Mesothelioma)
Method in brief: as §1

[9] = system: NCI-H3122 (Lung Adenocarcinoma)
Method in brief: as §1

[10] = system: NCI-H520 (Squamous Cell Lung Carcinoma)
Method in brief: as §1

[11] = system: NCI-H526 (Small Cell Lung Carcinoma)
Method in brief: as §1

[12] = system: NCI-H929 (Plasma Cell Myeloma)
Method in brief: as §1

[13] = system: OCI-AML3 (Acute Myeloid Leukemia)
Method in brief: as §1

SJSA-1 (Osteosarcoma) = system: SJSA-1 (Osteosarcoma)
Method in brief: as §1

[14] = system: SK-GT-4 (Esophageal Adenocarcinoma)
Method in brief: as §1

[15] = system: ST486 (Burkitt's Lymphoma)
Method in brief: as §1

[16] = system: T-T (Esophageal Squamous Cell Carcinoma)
Method in brief: as §1

[17] = system: VMRC-RCZ (Kidney Carcinoma)
Method in brief: as §1

Compound	Bliss excess [1]	Bliss excess [2]	Bliss excess [3]	Bliss excess [4]	Bliss excess [5]	Bliss excess (M059J (Glioblastoma))	Bliss excess [6]	Bliss excess [7]	Bliss excess [8]	Bliss excess (NCI-H2731 (Mesothelioma))	Bliss excess [9]	Bliss excess [10]	Bliss excess [11]	Bliss excess [12]	Bliss excess [13]	Bliss excess (SJSA-1 (Osteosarcoma))	Bliss excess [14]	Bliss excess [15]	Bliss excess [16]	Bliss excess [17]
C[C@@H](Oc1cc(-c2cnn(C3CCNCC3)c2)cnc1N)c1c(Cl)ccc(F)c1Cl [Crizotinib] + CC1=C(C(=CC=C1)Cl)NC(=O)C2=CN=C(S2)NC3=CC(=NC(=N3)C)N4CCN(CC4)CCO [Dasatinib] (first compound max 10 µM, 7x7, partner max 2 µM)	0.0599	-0.0315	-0.057	0.0121	0.0481	0.024	-0.0074	0.0574	-0.0416	0.0443	-0.0882	0.0375	-0.0339	-0.0147	0.0207	-0.0238	0.0033	0.0506	0.0322	0.0518
CN(CCO)CC[C@H](CSc1ccccc1)Nc1ccc(S(=O)(=O)NC(=O)c2ccc(N3CCC([C@@H](O)c4ccccc4-c4ccc(Cl)cc4)CC3)cc2)cc1S(=O)(=O)C(F)(F)F [AZD4320] + CC(=O)O[C@H]1C(=O)[C@@]2(C)[C@H]([C@H](OC(=O)c3ccccc3)[C@]3(O)C[C@H](OC(=O)[C@H](O)[C@@H](NC(=O)c4ccccc4)c4ccccc4)C(C)=C1C3(C)C)[C@]1(OC(C)=O)CO[C@@H]1C[C@@H]2O [Paclitaxel] (first compound max 1 µM, 7x7, partner max 3 µM)	0.0141	-0.0328	0.131	-0.0252	0.0171	0.0756	0.0332	0.0506	0.0317	0.0876	0.0379	0.0142	0.0193	-0.0687	0.007	0.0637	0.0543	-0.0016	0.0528	0.128
O=C(c1cc(Cc2n[nH]c(=O)c3ccccc23)ccc1F)N1CCN(C(=O)C2CC2)CC1 [Olaparib] + Cc1c2c(nn1C)CSCc1cc(n(C)n1)CSc1cc(c3ccccc3c1)OCCCc1c(C(=O)O)n(C)c3c-2c(Cl)ccc13 [AZD5991] (first compound max 10 µM, 7x7, partner max 1 µM)	0.0494	-0.03	-0.0576	-0.0111	-0.0303	0.0008	-0.0496	-0.0519	0.0176	-0.0452	-0.0156	-0.0289	0.0251	-0.0215	0.0224	-0.0401	-0.061	0.0593	-0.0217	-0.049
N#Cc1cnc(Nc2cc(NC[C@H]3CNCCO3)c(C(F)(F)F)cn2)cn1 [SRA737] + CCc1c2c(nc3ccc(O)cc13)-c1cc3c(c(=O)n1C2)COC(=O)[C@]3(O)CC [SN-38] (first compound max 10 µM, 7x7, partner max 0.3 µM)	-0.0153	-0.0853	-0.0089	-0.0939	-0.0265	-0.0326	-0.0495	-0.0105	0.0294	-0.005	-0.0454	-0.0063	-0.0427	-0.0781	-0.067	-0.0751	-0.0544	-0.0232	0.0451	-0.0348
C[C@@H](Nc1cc(F)cc(F)c1)c1cc(C(=O)N(C)C)cc2c(=O)cc(N3CCOCC3)oc12 [AZD8186] + CC(=O)c1c(C)c2cnc(Nc3ccc(N4CCNCC4)cn3)nc2n(C2CCCC2)c1=O [Palbociclib] (first compound max 10 µM, 7x7, partner max 10 µM)	0.147	0.0464	0.0123	0.0412	-0.0036	-0.006	-0.0082	0.0077	0.0183	-0.0036	0.0528	0.111	-0.0207	-0.0272	0.0401	-0.0268	-0.0649	0.0478	0.0135	0.12
CN(CCO)CC[C@H](CSc1ccccc1)Nc1ccc(S(=O)(=O)NC(=O)c2ccc(N3CCC([C@@H](O)c4ccccc4-c4ccc(Cl)cc4)CC3)cc2)cc1S(=O)(=O)C(F)(F)F [AZD4320] + CS(=O)(=O)CCNCc1ccc(-c2ccc3ncnc(Nc4ccc(OCc5cccc(F)c5)c(Cl)c4)c3c2)o1 [Lapatinib] (first compound max 1 µM, 7x7, partner max 10 µM)	0.0862	-0.0322	-0.0588	0.0801	-0.0254	0.0681	-0.0716	-0.0278	0.0212	-0.0076	0.0006	-0.0382	0.0898	0.0248	0.0258	-0.085	0.0451	0.0668	-0.0055	-0.0072
Cc1nc(-c2cn3c(n2)-c2ccc(-c4cnn(C(C)(C)C(N)=O)c4)cc2OCC3)n(C(C)C)n1 [Taselisib] + O=C(Nc1ccc2[nH]nc(-c3ccncc3)c2c1)[C@@H]1CCN(CC(=O)N2CCN(c3ccc(-c4ncccn4)cc3)CC2)C1 [SCH772984] (first compound max 10 µM, 7x7, partner max 5 µM)	0.0833	0.0458	0.0368	0.0569	0.0577	0.0027	-0.026	-0.0727	-0.032	0.0323	0.126	0.0461	0.0117	0.0344	0.0661	0.0019	0.0428	0.0569	0.133	0.0004
Cc1cc2ncnn2cc1Nc1ncc2c(n1)n(C1CCOCC1)c(=O)n2C [AZD7648] + COc1cc([C@@H]2c3cc4c(cc3[C@@H](O[C@@H]3O[C@@H]5CO[C@@H](C)O[C@H]5[C@H](O)[C@H]3O)[C@H]3COC(=O)[C@H]23)OCO4)cc(OC)c1O [Etoposide] (first compound max 10 µM, 7x7, partner max 10 µM)	0.149	0.0573	-0.0136	0.035	0.0627	0.003	0.06	0.106	0.0365	0.08	0.0903	0.0639	0.121	0.033	0.123	0.0316	0.0096	0.0989	0.0254	0.0743
N#Cc1cnc(Nc2cc(NC[C@H]3CNCCO3)c(C(F)(F)F)cn2)cn1 [SRA737] + C=CCn1c(=O)c2cnc(Nc3ccc(N4CCN(C)CC4)cc3)nc2n1-c1cccc(C(C)(C)O)n1 [AZD1775] (first compound max 10 µM, partner max 1 µM)	0.116	0.0162	0.0086	0.0668	0.136	0.073	-0.0125	0.0229	0.0855	0.0007	0.0718	0.055	0.0145	0.0295	0.171	0.0091	0.003	0.0356	0.0665	0.0259
CS(=O)(=O)CCNCc1ccc(-c2ccc3ncnc(Nc4ccc(OCc5cccc(F)c5)c(Cl)c4)c3c2)o1 [Lapatinib] + NC1(c2ccc(-c3nc4ccn5c(=O)[nH]nc5c4cc3-c3ccccc3)cc2)CCC1 [MK-2206] (first compound max 10 µM, 7x7, partner max 10 µM)	0.0229	-0.0434	-0.0194	-0.0194	0.0262	-0.0047	0.0332	-0.0681	-0.0143	0.0201	-0.0497	0.0011	0.0254	-0.0278	0.0739	-0.0402	0.0402	0.0266	-0.0168	0.0019
O=C(c1cc(Cc2n[nH]c(=O)c3ccccc23)ccc1F)N1CCN(C(=O)C2CC2)CC1 [Olaparib] + COc1nnc2ccc(N3CCC(c4ccc(OCCN5CCN(C)C(=O)[C@H]5C)cc4)CC3)nn12 [AZD5153] (first compound max 10 µM, 7x7, partner max 1 µM)	0.0327	-0.0592	-0.0554	-0.0778	0.0235	-0.0672	-0.0721	-0.0569	-0.0739	-0.0208	-0.0021	-0.0134	-0.0689	-0.0516	-0.0369	-0.0323	-0.0894	-0.0433	-0.0283	-0.0243
C[C@@H](Oc1cc(-c2cnn(C3CCNCC3)c2)cnc1N)c1c(Cl)ccc(F)c1Cl [Crizotinib] + Cn1cnc2c(F)c(Nc3ccc(Br)cc3Cl)c(C(=O)NOCCO)cc21 [Selumetinib] (first compound max 10 µM, 7x7, partner max 10 µM)	-0.0192	-0.0423	-0.0229	-0.0466	0.0039	-0.0562	-0.0797	-0.0423	-0.0503	-0.0382	-0.0479	-0.0779	-0.0142	-0.0421	-0.0401	0.0262	-0.0405	-0.0819	0.0159	-0.0338
C=CCn1c(=O)c2cnc(Nc3ccc(N4CCN(C)CC4)cc3)nc2n1-c1cccc(C(C)(C)O)n1 [AZD1775] + CCc1c2c(nc3ccc(O)cc13)-c1cc3c(c(=O)n1C2)COC(=O)[C@]3(O)CC [SN-38] (first compound max 1 µM, partner max 0.3 µM)	-0.0425	-0.0515	-0.067	-0.0318	0.0029	0.0051	-0.0244	-0.053	-0.0342	-0.0744	-0.0233	-0.0637	-0.0476	-0.0303	-0.103	-0.0742	0.0211	-0.0359	-0.031	-0.0623
N#Cc1cnc(Nc2cc(NC[C@H]3CNCCO3)c(C(F)(F)F)cn2)cn1 [SRA737] + O=c1[nH]cc(F)c(=O)[nH]1 [5-Fluorouracil] (first compound max 10 µM, 7x7, partner max 20 µM)	0.077	0.0039		-0.0726	0.127	0.0052	-0.0751	-0.001	-0.0561	-0.0374	0.0315	-0.0306	0.0854	0.0184	0.0646	0.0126	-0.0187	0.0098	0.0483	-0.0163
